Test results as given in PubChem BioAssay (NCI).
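Each compound was tested at five concentrations against cells in 96-well plates for 48 hours. At the GI50, growth is halved. TGI denotes the concentration required for complete inhibition of growth.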

How the values were obtained:
Assay in all cases: NCI-60 cell line screen, 48 h
SK-MEL-2 melanoma = test system: SK-MEL-2 melanoma
CAKI-1 renal = test system: CAKI-1 renal
RXF 393 renal = test system: RXF 393 renal
EKVX NSCLC = test system: EKVX NSCLC
LOX IMVI melanoma = test system: LOX IMVI melanoma
A498 renal = test system: A498 renal
HCT-15 colon = test system: HCT-15 colon
OVCAR-4 ovarian = test system: OVCAR-4 ovarian
T-47D breast = test system: T-47D breast
HCC-2998 colon = test system: HCC-2998 colon
OVCAR-8 ovarian = test system: OVCAR-8 ovarian
COLO 205 colon = test system: COLO 205 colon
HT29 colon = test system: HT29 colon
HS 578T breast = test system: HS 578T breast
MCF7 breast = test system: MCF7 breast
SN12C renal = test system: SN12C renal
SF-295 CNS = test system: SF-295 CNS
MDA-MB-231 breast = test system: MDA-MB-231 breast
NCI-H226 lung = test system: NCI-H226 lung
OVCAR-5 ovarian = test system: OVCAR-5 ovarian
MDA-MB-435 = test system: MDA-MB-435
HOP-62 NSCLC = test system: HOP-62 NSCLC
786-0 renal = test system: 786-0 renal
HL-60(TB) leukemia = test system: HL-60(TB) leukemia
NCI-H460 lung = test system: NCI-H460 lung
HOP-92 NSCLC = test system: HOP-92 NSCLC
OVCAR-3 ovarian = test system: OVCAR-3 ovarian
M14 melanoma = test system: M14 melanoma
HCT-116 colon = test system: HCT-116 colon
MALME-3M melanoma = test system: MALME-3M melanoma
K-562 leukemia = test system: K-562 leukemia
SF-539 CNS = test system: SF-539 CNS
SW-620 colon = test system: SW-620 colon
SK-MEL-5 melanoma = test system: SK-MEL-5 melanoma
NCI-H23 lung = test system: NCI-H23 lung
SK-OV-3 ovarian = test system: SK-OV-3 ovarian
UACC-62 melanoma = test system: UACC-62 melanoma
UACC-257 melanoma = test system: UACC-257 melanoma
TK-10 renal = test system: TK-10 renal
UO-31 renal = test system: UO-31 renal
ACHN renal = test system: ACHN renal
NCI-H522 lung = test system: NCI-H522 lung
NCI/ADR-RES ovarian = test system: NCI/ADR-RES ovarian
U251 CNS = test system: U251 CNS
RPMI-8226 leukemia = test system: RPMI-8226 leukemia
A549 NSCLC = test system: A549 NSCLC
SK-MEL-28 melanoma = test system: SK-MEL-28 melanoma
SF-268 CNS = test system: SF-268 CNS
SR leukemia = test system: SR leukemia
KM12 colon = test system: KM12 colon
SNB-75 CNS = test system: SNB-75 CNS
SNB-19 CNS = test system: SNB-19 CNS
PC-3 prostate = test system: PC-3 prostate
MOLT-4 leukemia = test system: MOLT-4 leukemia
IGROV1 ovarian = test system: IGROV1 ovarian
DU-145 prostate = test system: DU-145 prostate
BT-549 breast = test system: BT-549 breast

Work on `N[C@@H](CSSC[C@H](N)C(=O)N1CCn2cc(-c3ccccc3)nc2[C@@H]1CC1CCCCC1)C(=O)N1CCn2cc(-c3ccccc3)nc2[C@@H]1CC1CCCCC1` yielded a GI50 (SK-MEL-2 melanoma) of 837 nM, a TGI (SK-MEL-2 melanoma) of 2280 nM and a GI50 (CAKI-1 renal) of 1910 nM. For the same compound, the TGI (CAKI-1 renal) was 4600 nM, the GI50 (RXF 393 renal) was 1630 nM and the TGI (RXF 393 renal) was 3100 nM. It also gave a GI50 (EKVX NSCLC) of 1340 nM, a TGI (EKVX NSCLC) of 2810 nM and a GI50 (LOX IMVI melanoma) of 1340 nM. For the same compound, the TGI (LOX IMVI melanoma) was 2990 nM, the GI50 (A498 renal) was 2680 nM and the TGI (A498 renal) was 5390 nM. It also gave a GI50 (HCT-15 colon) of 1820 nM, a TGI (HCT-15 colon) of 3710 nM and a GI50 (OVCAR-4 ovarian) of 2150 nM. For the same compound, the TGI (OVCAR-4 ovarian) was 4800 nM, the GI50 (T-47D breast) was 543 nM and the TGI (T-47D breast) was 2020 nM. The GI50 (HCC-2998 colon) was 1660 nM, the TGI (HCC-2998 colon) was 3170 nM and the GI50 (OVCAR-8 ovarian) was 1870 nM. The TGI (OVCAR-8 ovarian) was 5760 nM, the GI50 (COLO 205 colon) was 1790 nM and the TGI (COLO 205 colon) was 3270 nM. For the same compound, the GI50 (HT29 colon) was 1630 nM, the TGI (HT29 colon) was 3420 nM and the GI50 (HS 578T breast) was 3100 nM. For the same compound, the TGI (HS 578T breast) was > 100000 nM, the GI50 (MCF7 breast) was 1420 nM and the TGI (MCF7 breast) was 2850 nM. The GI50 (SN12C renal) was 1620 nM, the TGI (SN12C renal) was 3560 nM and the GI50 (SF-295 CNS) was 1830 nM. For the same compound, the TGI (SF-295 CNS) was 3410 nM, the GI50 (MDA-MB-231 breast) was 1740 nM and the TGI (MDA-MB-231 breast) was 3680 nM. The GI50 (NCI-H226 lung) was 2020 nM, the TGI (NCI-H226 lung) was 4090 nM and the GI50 (OVCAR-5 ovarian) was 2230 nM. It also gave a TGI (OVCAR-5 ovarian) of 6390 nM, a GI50 (MDA-MB-435) of 331 nM and a TGI (MDA-MB-435) of 1450 nM. The GI50 (HOP-62 NSCLC) was 1590 nM, the TGI (HOP-62 NSCLC) was 3250 nM and the GI50 (786-0 renal) was 2120 nM. For the same compound, the TGI (786-0 renal) was 4520 nM, the GI50 (HL-60(TB) leukemia) was 2130 nM and the TGI (HL-60(TB) leukemia) was > 19700 nM. It also gave a GI50 (NCI-H460 lung) of 1920 nM, a TGI (NCI-H460 lung) of 6400 nM and a GI50 (HOP-92 NSCLC) of 2450 nM. The TGI (HOP-92 NSCLC) was 5800 nM, the GI50 (OVCAR-3 ovarian) was 1410 nM and the TGI (OVCAR-3 ovarian) was 2760 nM. For the same compound, the GI50 (M14 melanoma) was 301 nM, the TGI (M14 melanoma) was 1230 nM and the GI50 (HCT-116 colon) was 1140 nM. It also gave a TGI (HCT-116 colon) of 2510 nM, a GI50 (MALME-3M melanoma) of 1500 nM and a TGI (MALME-3M melanoma) of 2990 nM. For the same compound, the GI50 (K-562 leukemia) was 1480 nM, the TGI (K-562 leukemia) was > 100000 nM and the GI50 (SF-539 CNS) was 1750 nM. The TGI (SF-539 CNS) was 3550 nM, the GI50 (SW-620 colon) was 1240 nM and the TGI (SW-620 colon) was 3360 nM. The GI50 (SK-MEL-5 melanoma) was 361 nM, the TGI (SK-MEL-5 melanoma) was 1530 nM and the GI50 (NCI-H23 lung) was 1410 nM. It also gave a TGI (NCI-H23 lung) of 3140 nM, a GI50 (SK-OV-3 ovarian) of 1590 nM and a TGI (SK-OV-3 ovarian) of 5420 nM. It also gave a GI50 (UACC-62 melanoma) of 843 nM, a TGI (UACC-62 melanoma) of 2320 nM and a GI50 (UACC-257 melanoma) of 1400 nM. It also gave a TGI (UACC-257 melanoma) of 3320 nM, a GI50 (TK-10 renal) of 2050 nM and a TGI (TK-10 renal) of 4450 nM. The GI50 (UO-31 renal) was 1690 nM, the TGI (UO-31 renal) was 3610 nM and the GI50 (ACHN renal) was 1770 nM. For the same compound, the TGI (ACHN renal) was 3810 nM, the GI50 (NCI-H522 lung) was 1680 nM and the TGI (NCI-H522 lung) was 3390 nM. For the same compound, the GI50 (NCI/ADR-RES ovarian) was 2950 nM, the TGI (NCI/ADR-RES ovarian) was 9320 nM and the GI50 (U251 CNS) was 1370 nM. For the same compound, the TGI (U251 CNS) was 2760 nM, the GI50 (RPMI-8226 leukemia) was 2350 nM and the TGI (RPMI-8226 leukemia) was 5680 nM. For the same compound, the GI50 (A549 NSCLC) was 1370 nM, the TGI (A549 NSCLC) was 3050 nM and the GI50 (SK-MEL-28 melanoma) was 529 nM. For the same compound, the TGI (SK-MEL-28 melanoma) was 1960 nM, the GI50 (SF-268 CNS) was 344 nM and the TGI (SF-268 CNS) was 2460 nM. For the same compound, the GI50 (SR leukemia) was 1380 nM, the GI50 (KM12 colon) was 910 nM and the TGI (KM12 colon) was 2470 nM. It also gave a GI50 (SNB-75 CNS) of 1790 nM, a TGI (SNB-75 CNS) of 3300 nM and a GI50 (SNB-19 CNS) of 1360 nM. For the same compound, the TGI (SNB-19 CNS) was 2850 nM, the GI50 (PC-3 prostate) was 2910 nM and the TGI (PC-3 prostate) was 9620 nM. For the same compound, the GI50 (MOLT-4 leukemia) was 1740 nM, the TGI (MOLT-4 leukemia) was > 21400 nM and the GI50 (IGROV1 ovarian) was 2410 nM. For the same compound, the TGI (IGROV1 ovarian) was 5960 nM, the GI50 (DU-145 prostate) was 2450 nM and the TGI (DU-145 prostate) was 8650 nM. The GI50 (BT-549 breast) was 2230 nM and the TGI (BT-549 breast) was 3910 nM.
